Source: PubChem BioAssay (NCI)
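Exposure lasted 48 hours, with cells grown in 96-well plates and compounds tested at five concentrations. GI50: concentration for 50% inhibition of growth. TGI: total growth inhibition.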

Tests used:
Assay in all cases: inhibition of tumour cell growth, NCI panel, 48 h; in the data active = GI50 below about 0.43 µM; inactive = the rest
MCF7 breast = tested on: MCF7 breast
K-562 leukemia = tested on: K-562 leukemia
HL-60(TB) leukemia = tested on: HL-60(TB) leukemia
RXF 393 renal = tested on: RXF 393 renal
SR leukemia = tested on: SR leukemia
MOLT-4 leukemia = tested on: MOLT-4 leukemia
SF-268 CNS = tested on: SF-268 CNS
HOP-92 NSCLC = tested on: HOP-92 NSCLC
BT-549 breast = tested on: BT-549 breast
SK-MEL-2 melanoma = tested on: SK-MEL-2 melanoma
RPMI-8226 leukemia = tested on: RPMI-8226 leukemia
SF-295 CNS = tested on: SF-295 CNS
HOP-62 NSCLC = tested on: HOP-62 NSCLC
HCT-116 colon = tested on: HCT-116 colon
CAKI-1 renal = tested on: CAKI-1 renal
LOX IMVI melanoma = tested on: LOX IMVI melanoma
SK-OV-3 ovarian = tested on: SK-OV-3 ovarian
COLO 205 colon = tested on: COLO 205 colon
ACHN renal = tested on: ACHN renal
PC-3 prostate = tested on: PC-3 prostate
MALME-3M melanoma = tested on: MALME-3M melanoma
IGROV1 ovarian = tested on: IGROV1 ovarian
MDA-MB-435 = tested on: MDA-MB-435
SNB-19 CNS = tested on: SNB-19 CNS
SW-620 colon = tested on: SW-620 colon
OVCAR-5 ovarian = tested on: OVCAR-5 ovarian
EKVX NSCLC = tested on: EKVX NSCLC
M14 melanoma = tested on: M14 melanoma
NCI-H522 lung = tested on: NCI-H522 lung
MDA-MB-231 breast = tested on: MDA-MB-231 breast
CCRF-CEM leukemia = tested on: CCRF-CEM leukemia
OVCAR-8 ovarian = tested on: OVCAR-8 ovarian
A498 renal = tested on: A498 renal
U251 CNS = tested on: U251 CNS
KM12 colon = tested on: KM12 colon
UACC-62 melanoma = tested on: UACC-62 melanoma
SN12C renal = tested on: SN12C renal
SK-MEL-28 melanoma = tested on: SK-MEL-28 melanoma
UO-31 renal = tested on: UO-31 renal
786-0 renal = tested on: 786-0 renal
SF-539 CNS = tested on: SF-539 CNS
HCC-2998 colon = tested on: HCC-2998 colon
A549 NSCLC = tested on: A549 NSCLC
T-47D breast = tested on: T-47D breast
HS 578T breast = tested on: HS 578T breast
UACC-257 melanoma = tested on: UACC-257 melanoma
SK-MEL-5 melanoma = tested on: SK-MEL-5 melanoma
NCI-H460 lung = tested on: NCI-H460 lung
HCT-15 colon = tested on: HCT-15 colon
NCI-H226 lung = tested on: NCI-H226 lung
SNB-75 CNS = tested on: SNB-75 CNS
DU-145 prostate = tested on: DU-145 prostate
OVCAR-4 ovarian = tested on: OVCAR-4 ovarian
HT29 colon = tested on: HT29 colon

CO/N=C1\CCc2c(sc(NC(=O)c3cccc(C(F)(F)F)c3)c2C(N)=O)C1
4060 nM: TGI (HOP-92 NSCLC)
96300 nM: TGI (SK-MEL-2 melanoma)
inactive: GI50 (MCF7 breast) 2370 nM | GI50 (K-562 leukemia) > 100000 nM | GI50 (HL-60(TB) leukemia) > 100000 nM | GI50 (RXF 393 renal) 1910 nM | GI50 (SR leukemia) > 100000 nM | GI50 (MOLT-4 leukemia) > 100000 nM | GI50 (SF-268 CNS) 4250 nM | GI50 (HOP-92 NSCLC) 1560 nM | GI50 (BT-549 breast) 3530 nM | GI50 (SK-MEL-2 melanoma) 4080 nM
3650 nM: TGI (RXF 393 renal)
> 100000 nM: TGI (MCF7 breast) | TGI (K-562 leukemia) | TGI (HL-60(TB) leukemia) | TGI (SR leukemia) | TGI (MOLT-4 leukemia) | TGI (SF-268 CNS) | TGI (BT-549 breast)

CCNC(=O)N1CCc2cc(OC)c(OCCc3ccc(OC)cc3)cc2C1c1ccc([N+](=O)[O-])cc1C (stereo unspecified)
3410 nM: TGI (NCI-H522 lung)
7350 nM: TGI (HS 578T breast)
active: GI50 (LOX IMVI melanoma) 387 nM | GI50 (K-562 leukemia) 381 nM | GI50 (SR leukemia) 327 nM | GI50 (NCI-H460 lung) 368 nM | GI50 (HCT-15 colon) 382 nM
7140 nM: TGI (RPMI-8226 leukemia)
6770 nM: TGI (SF-539 CNS)
3590 nM: TGI (SK-MEL-5 melanoma)
3300 nM: TGI (NCI-H460 lung)
6950 nM: TGI (SNB-75 CNS)
inactive: GI50 (RPMI-8226 leukemia) 631 nM | GI50 (SF-295 CNS) 576 nM | GI50 (MCF7 breast) 540 nM | GI50 (HOP-62 NSCLC) 2280 nM | GI50 (HCT-116 colon) 437 nM | GI50 (CAKI-1 renal) 1090 nM | GI50 (SK-OV-3 ovarian) 2830 nM | GI50 (COLO 205 colon) 797 nM | GI50 (ACHN renal) 875 nM | GI50 (PC-3 prostate) 559 nM | GI50 (MALME-3M melanoma) 4120 nM | GI50 (IGROV1 ovarian) 759 nM | GI50 (MDA-MB-435) 491 nM | GI50 (HL-60(TB) leukemia) 608 nM | GI50 (SNB-19 CNS) 1330 nM | GI50 (SW-620 colon) 551 nM | GI50 (OVCAR-5 ovarian) 2140 nM | GI50 (EKVX NSCLC) > 100000 nM | GI50 (M14 melanoma) 759 nM | GI50 (NCI-H522 lung) 730 nM | GI50 (MDA-MB-231 breast) 797 nM | GI50 (CCRF-CEM leukemia) 662 nM | GI50 (OVCAR-8 ovarian) 812 nM | GI50 (A498 renal) 1550 nM | GI50 (U251 CNS) 580 nM | GI50 (MOLT-4 leukemia) 485 nM | GI50 (KM12 colon) 4640 nM | GI50 (UACC-62 melanoma) 547 nM | GI50 (SN12C renal) 1840 nM | GI50 (SK-MEL-28 melanoma) 869 nM | GI50 (UO-31 renal) 1540 nM | GI50 (786-0 renal) 619 nM | GI50 (SF-539 CNS) 702 nM | GI50 (HCC-2998 colon) 1950 nM | GI50 (A549 NSCLC) 840 nM | GI50 (T-47D breast) 3340 nM | GI50 (SF-268 CNS) 881 nM | GI50 (HS 578T breast) 1570 nM | GI50 (UACC-257 melanoma) 3540 nM | GI50 (SK-MEL-5 melanoma) 794 nM | GI50 (HOP-92 NSCLC) 1040 nM | GI50 (BT-549 breast) 1670 nM | GI50 (SK-MEL-2 melanoma) 2370 nM | GI50 (NCI-H226 lung) 2090 nM | GI50 (SNB-75 CNS) 680 nM | GI50 (DU-145 prostate) 1870 nM | GI50 (OVCAR-4 ovarian) 2800 nM | GI50 (HT29 colon) 706 nM
6690 nM: TGI (A498 renal)
7650 nM: TGI (LOX IMVI melanoma)
6040 nM: TGI (HT29 colon)
8030 nM: TGI (HOP-92 NSCLC)
10600 nM: TGI (HL-60(TB) leukemia)
6120 nM: TGI (BT-549 breast)
> 100000 nM: TGI (SF-295 CNS) | TGI (MCF7 breast) | TGI (HOP-62 NSCLC) | TGI (HCT-116 colon) | TGI (CAKI-1 renal) | TGI (K-562 leukemia) | TGI (SK-OV-3 ovarian) | TGI (COLO 205 colon) | TGI (ACHN renal) | TGI (PC-3 prostate) | TGI (MALME-3M melanoma) | TGI (IGROV1 ovarian) | TGI (MDA-MB-435) | TGI (SNB-19 CNS) | TGI (SW-620 colon) | TGI (OVCAR-5 ovarian) | TGI (EKVX NSCLC) | TGI (SR leukemia) | TGI (M14 melanoma) | TGI (MDA-MB-231 breast) | TGI (CCRF-CEM leukemia) | TGI (OVCAR-8 ovarian) | TGI (U251 CNS) | TGI (MOLT-4 leukemia) | TGI (KM12 colon) | TGI (UACC-62 melanoma) | TGI (SN12C renal) | TGI (SK-MEL-28 melanoma) | TGI (UO-31 renal) | TGI (786-0 renal) | TGI (HCC-2998 colon) | TGI (A549 NSCLC) | TGI (T-47D breast) | TGI (SF-268 CNS) | TGI (UACC-257 melanoma) | TGI (HCT-15 colon) | TGI (SK-MEL-2 melanoma) | TGI (NCI-H226 lung) | TGI (DU-145 prostate) | TGI (OVCAR-4 ovarian)
